According to patent US9943499B2, “Lipase inhibitors for the treatment of pancreatitis and organ failure” (priority 2011, dated 2018):
Entries after “also recorded” stand apart in the source; their conditions may differ.

Experiments:
[1] = test system: pancreatic acini; experiment: Acinar-adipocyte co-culture; format: cell-based, mice
Description: Harvesting cells: Primary acinar cells from wild type mice (C57B6) were harvested and used as described previously. Viability, confirmed by trypan blue exclusion, was >95%. […] These were used in the individual experiments. Data presented is representative of 3 or more experiments. Acinar-adipocyte co-culture: This was done in 12-well companion plates with cell culture inserts (FIG. 14). […] Serum and medium cytokine assays: These were done for TNF-α, MCP-1, IL-6, resistin, and adiponectin using the fluorescence-based capture sandwich immunoassay based on the Luminex FlowMetrix system (Luminex). The Milliplex Mouse Adipokine Panel (7-Plex) 1 kit from Millipore (Billerica, Mass.) was used. Samples were analyzed using the Bio-Plex suspension array system, which included a fluorescent reader and Bio-Plex Manager analytical software (Bio-Rad Laboratories, Hercules, Calif.) at the University of Pittsburgh, Cancer Institute Luminex Core Facility. Visceral fat triglyceride composition: The visceral fat triglyceride composition analysis was done at Kennedy Krieger Institute (Baltimore, Md.). Briefly, total lipids were extracted by the method of Folch. […] The fatty acids were derivatized and analyzed by GCMS as their pentafluorbenzylbromide esters. ATP levels, cytochrome C release, and % LDH leakage were measured as previously described. Apoptosis was measured by active caspase-3 [western blotting, activity assays (Enzcheck, Invitrogen, Carlsbad, Calif.)], TUNEL assays, and Hoechst dye nuclear incorporation (8 mg/ml Hoechst 33342 added for 15 minutes after treatment). […] Results were reported as % of cells with given nuclear changes. These were counter stained with PI (1 μM) to stain necrotic cells (FIG. 7A, B, C) and imaged with a Zeiss Meta dual fluorescence confocal microscope. PI-positive cells were counted as late apoptosis or necrosis. […] Autophagy was studied by western blotting for LC3-I and II. RNA was extracted using Trizol (Invitrogen, Carlsbad, Calif.). mRNA levels of TNF-α, CXCL1, and CXCL2 were measured as described previously using real time-PCR performed on an ABI Prism 7000 Sequence Detection System (Applied Biosystems, Foster City, Calif.) on proprietary Taqman Gene Expression assay reagents (Applied Biosystems). Mitochondrial complex assays and citrate synthase assay were done as described previously.

[2] = test system: adipocytes; experiment: Isoproterenol-stimulated glycerol release in adipocyte culture; format: cell-based
[3] = test system: ob/ob mice; experiment: IL12+18 pancreatitis model; format: in vivo; conditions: for pancreatic changes: fat necrosis, saponification, peri-fat acinar necrosis, acinar necrosis, hypocalcemia (gross, histologic, biochemical): orlistat 50 mg/kg every 12 hours from 2 hours after induction; for serum SFA levels: orlistat vs IL+Veh group
Description: For histologic evaluation, we retrieved all hematoxylin and eosin-stained slides of the pancreas (1-4 in number) of control and acute pancreatitis patients. A trained pathologist with specific interest in gastrointestinal pathology blinded to demographic and clinical data examined the slides. Adipose tissue with large vessels and nerves not bounded by at least 2 pieces of pancreatic parenchyma was regarded as peripancreatic and excluded. The remaining adipose tissue, necrotic fat (bluish cheesy appearance of adipocytes), necrotic parenchyma, and parenchymal necrosis immediately contiguous to areas of fat necrosis (peri-fat acinar necrosis; PFAN) were additionally measured. All of these were measured as a percentage pixel area of each individual field after excluding dead space using Adobe Photoshop PS. The pixel areas of individual parameters for each case were added. The final number was divided by the number of fields to give a percentage area for that parameter in the section. For patients with more than 1 section, the average of the percentage of intrapancreatic fat for all fields from different sections was chosen as representative for the specimen. Von Kossa (to study fat necrosis, saponification), TUNEL (Terminal deoxynucleotidyl transferase dUTP nick end labeling), and oil red O staining were done per standard protocol.
Serum and medium cytokine assays: These were done for TNF-α, MCP-1, IL-6, resistin, and adiponectin using the fluorescence-based capture sandwich immunoassay based on the Luminex FlowMetrix system (Luminex). The Milliplex Mouse Adipokine Panel (7-Plex) 1 kit from Millipore (Billerica, Mass.) was used. Samples were analyzed using the Bio-Plex suspension array system, which included a fluorescent reader and Bio-Plex Manager analytical software (Bio-Rad Laboratories, Hercules, Calif.) at the University of Pittsburgh, Cancer Institute Luminex Core Facility.
Pancreatitis model: IL12+18 model: There were 8-12 animals in each group. Pancreatitis was induced as described previously in 8-10 week old female ob-ob (B6.V-Lepob/J) mice. Briefly, IL-12 (150 ng/dose/mouse) and IL-18 (750 ng/dose/mouse) were simultaneously given intraperitoneally in 2 doses, 24 hours apart. Orlistat at reduced dose than previously published (50 mg/kg) was administered in vehicle (0.1 ml 30% ethanol) as described previously. First injection of orlistat or vehicle was 2 hours after induction of pancreatitis, and these were then repeated every 12 hours.
Non-esterified fatty acid analysis: The sample was extracted with isopropanol-heptane-hydrochloric acid (1M) (40:10:1, v/v) by vortexing for 25-30 min and allowed to incubate at room temperature for 10 minutes. Heptane (4.0 ml) and water (2.0 ml) were added, and the tubes were thoroughly vortexed for 5 minutes. Tubes were centrifuged at 1000 g for 10 minutes at 4° C., and the upper phase (heptane) is transferred into 13×100 mm screw top tubes and dried in a SpeedVac centrifugal concentrator. Non-esterified fatty acids were derivatized with dimethylamine using the Deoxo-Fluor reagent. Non-esterified fatty acid concentrations are measured by gas chromatography separation with flame ionization detection using heptanoic acid as an internal standard. This derivatization method is very mild and efficient and is selective only towards non-esterified fatty acids so that no separation from a total lipid extract is required.

[4] = test system: Male Wistar rats; experiment: Intraductal infusion of glyceryl trilinoleate (GTL) pancreatitis; format: in vivo
Protocol: Experiments were performed using a model, the technique of which is established and well described in rats (1, 2, 4, 7). This involves infusion of agents into the pancreatic duct to cause acute pancreatitis (1, 2, 4, 7). We will refer to this technique as “intraductal infusion”. We compared the severity of pancreatic damage and survival of rats after intraductal infusion of Glyceryl trilinoleate with and without the lipase inhibitor orlistat. In addition, we used a different lipase inhibitor-cetilistat (3, 6), and studied its efficacy in improving survival of rats in intraductal infusion pancreatitis induced with Glyceryl trilinoleate (GTL).
Male Wistar rats (250-350 gm), were anesthetized. Intraductal infusion of 0.1 ml (n=5) or 0.2 ml (n=5) of GTL (Sigma-Aldrich corporation) alone or GTL+orlistat (Caymen chemical, Ann Arbor, Mich.) (75 mg/ml, 0.1 ml n=5 or 0.2 ml n=5) or GTL+cetilistat (Jinan Wedo Industrial Co., Ltd., Jinan City, Shandong China) (25 mg/ml, 0.2 ml, n=10) was done as described previously (1, 2, 4, 7). All animals were given pain control (buprenorphine 200 mcg/kg BID), Cefazolin (100 mg/kg), and 10 cc saline subcutaneously BID as per the IACUC protocol. These were followed for survival.

[5] = test system: mouse melanoma model; conditions: Carvalho et al., Int. J. Cancer 2008; cited from earlier work
[6] = orlistat 50 μM, acini co-cultured with adipocytes
[7] = orlistat 50 mg/kg every 12 hours
[8] = in combination with GTL, at necropsy

With `CCCCCCCCCCC[C@@H](C[C@@H]1OC(=O)[C@H]1CCCCCC)OC(=O)[C@H](CC(C)C)NC=O` [orlistat] the “amylase secretory response to caerulein after co-culture” value ([1]; 50 μM orlistat, basal, 100 pM and 100 nM caerulein) was “amylase secretory pattern like control acini”, the “resistin levels in the medium” value ([1]; 50 μM orlistat, co-culture) was “prevents increase in resistin” and the “acinar cell viability and function” value [1, 6] was “restored acinar cell viability and function to control levels”. The “co-culture induced acinar cell changes (necrosis: propidium iodide positivity, drop in ATP levels, cytochrome c leakage; NEFA and resistin increase in medium)” value [1, 6] was “completely prevented”, the “10 μM isoprotrenol stimulated increase in glycerol levels” value ([2]; 50 μM orlistat, 1 hour adipocyte culture) was “not significantly prevented” and the “permeability through cell membranes” value ([2]; inferred from glycerol release experiment) was “limited permeability; also recorded: low permeability”. For the same molecule, the “serum amylase and lipase levels” value ([3]; compared with IL or IL+Veh groups) was “significantly reduced”, the “lung injury (apoptotic cells, lung MPO levels)” value [3, 7] was “significantly reduced” and the mortality [3, 7] was “significantly reduced”. For the same molecule, the “renal end organ damage (BUN, tubular vacuoles, oil red O, TUNEL, mitochondrial swelling, saponification)” value [3, 7] was “normalized”, the “serum UFA levels” value [3, 7] was “significantly reduced” and the “serum resistin, TNF-α, MCP-1 and IL-6” value [3, 7] was “normalized”. The “pancreatic changes: fat necrosis, saponification, peri-fat acinar necrosis, acinar necrosis, hypocalcemia (gross, histologic, biochemical)” value [3] was “prevents saponification”, the “pancreatic changes: fat necrosis, saponification, peri-fat acinar necrosis, acinar necrosis, hypocalcemia (gross, histologic, biochemical)” value ([3]; listed as Orlistat) was “significantly blocked” and the “renal end organ damage (BUN, tubular vacuoles, oil red O, TUNEL, mitochondrial swelling, saponification)” value ([3]; orlistat 50 mg/kg every 12 hours, listed as Orlistat) was “reduces these”. The “serum SFA levels” value [3] was “not significantly reduced”, the “serum SFA levels” value ([3]; listed as Orlistat) was “did not significantly reduce” and the mortality ([4]; dead/total, intraductal GTL alone, GTL+orlistat 75 mg/ml, GTL+cetilistat 25 mg/ml, followed to day 5) was 0/10. For the same molecule, the “lung injury (TUNEL positive nuclei)” value [4, 8] was “absence of TUNEL positive nuclei”, the “renal injury (TUNEL positive nuclei)” value [4, 8] was “nearly completely prevented” and the “lung injury (TUNEL positive nuclei)” value ([4]; in combination with GTL, at necropsy, listed as Orlistat) was “nearly completely prevented”. The “gross pancreatic appearance: hemorrhages and necrosis” value ([4]; intraductal GTL with or without lipase inhibitor) was “prevented the hemorrhages and necrosis up to 5 days” and the “apoptosis, cell growth and lymph node metastasis” value [5] was “promote apoptosis and reduce cell grown and lymph node metastasis”.
